Ten molecules from US5385918A, “Aminomethylene-peptides as immunosuppressants” (Miles Inc., priority 1993, dated 1995) can be followed below.

The IC50 is the concentration at which inhibition is half-maximal. What is called % Inhibition is the change of the read-out against control, counted positive when it falls.

Assay [1] has as its system NF-AT (FGL-5 cells). The assay is described as follows: NF-AT Inhibition Assay Directed β-Galactosidase Expression. Type of assay: cell-based. On the procedure:
Inhibition of NF-AT activity is measured using FGL-5 cells. FGL-5 is a cloned line of stably transfected Jurkat T-cells that contain a construct in which three tandem copies of the NF-AT DNA binding site direct transcription of the lacZ gene, encoding β-galactosidase (Fiering et al., 1990, Genes & Development 4:1823). When these cells are stimulated with phorbol esters which activate protein kinase C and calcium ionophore to raise the intracellular calcium concentration, transcriptionally active NF-AT is produced. In T-cells, this normally leads to the expression of IL-2, T-cell growth factor. However, in FGL-5 cells NF-AT activation leads to the production of β-galactosidase which can be detected using an appropriate substrate.
This assay was performed essentially as described (Bierer et al., 1990, Proc. Natl. Acad. Sci. 87:923 1). FGL-5 cells were maintained in medium consisting of RPMI-1640 with 10% FBS, 2 mM L-glutamine, 1% Penicillin-Streptomycin and 15 mM HEPES buffer. The assays were done with exponentially growing cells whose density was not greater than 0.5 million cells/ml. The cells were resuspended to 3 million cells/ml in medium and 0.1 ml was added to wells of a 96-well plate.
The compounds of the present invention were dissolved in either ethanol or dimethylsulfoxide at 10 mM and 0.05 ml/well of various dilutions in medium were added to cells in duplicate wells. Treatment controls consisted of duplicate wells to which 0.05 ml/well of either medium, ethanol or dimethylsulfoxide was added. The ethanol and dimethyl sulfoxide were at the same concentration as was used for the compounds. Cells were incubated with compounds at room temperature for 10-15 minutes. Phorbol dibutyrate (Sigma) and Ionomycin (Calbiochem) were dissolved at 50 μg/ml and 2 mM, respectively and stored at -70° C.
FGL-5 cells were stimulated by diluting these reagents with medium to 200 ng/ml and 8 μM, respectively and adding of 0.05 ml/well. For unstimulated cell controls, 0.05 ml/well of medium was added to duplicate wells. The plates were incubated overnight (16-18 hours) at 37° C. in a humidified atmosphere of 5% CO2 and air.
β-galactosidase activity was measured as the fluorescence generated by the cleavage of 4-methyl umbelliferyl-β-D-galactoside (Sigma) at the β-galactoside bond. After overnight incubation, the cells were centrifuged at 500×g for 3 minutes in the 96-well plates and washed 3 times with PBS. The cells were then resuspended in 0.18 ml/well of reaction medium containing 100 mM sodium phosphate buffer, pH 7.0, 10 mM potassium chloride, 1 mM magnesium sulfate, 0.1% Triton X-100 (Pierce, Rockford, Ill.), and 0.5 mM 4-methylumbelliferyl-β-D-galactoside.
The fluorescence at 460 nm using 3 55 nm excitation was measured at intervals over 1-2 hours (during which fluorescence increased linearly with time) with a LS50 Luminescence Spectrometer (Perkin Elmer).
The percent inhibition by each concentration of the compounds was calculated as: [formula]
The values of the concentration of compounds required for 50% inhibition (IC50) were determined by linear regression analysis of the percent inhibition at various compound concentrations.

Assay [2] has as its system Lewis rats. Put plainly: Adjuvant Arthritis Model in the Rat. As to conditions: for % Inhibition: inhibition of swelling in uninjected limb vs vehicle control, 10 mg/kg/dose i.p.; for ΔAnkle Diameter: uninjected hind paw, day 0 to day 16, 10 mg/kg/dose i.p. on days -1, 0, 2, 5, 7, 9, 12 and 14. The class given is in vivo. On the procedure:
Complete Freund's adjuvant is made by supplementing extra heavy mineral oil with 10 mg/ml heat killed Mycobacterium butyricum (Difco Laboratories, Detroit, Mich.). Lewis rats (Charles Rivers, Willmington, Mass.) are given a 0.1 ml injection of adjuvant (1 mg/animal mycobacterium) subcutaneously into the right hind footpad. In the injected foot, an acute inflammatory reaction occurs which is characterized by erythema, edema and a predominantly neutrophilic cell infiltrate. This is followed by edema in the uninjected contralateral foot by days 10-12. This secondary response is accompanied by a predominantly mononuclear cell infiltrate, indicating the presence of cell-mediated immunity.
The immune response is quantitated by measuring the change in ankle diameter of the uninjected hind paw from day 0 to day 16 post sensitization. This is accomplished using a hand-held dial micrometer. Animals are administered test drugs, suspended in a vehicle consisting of 5% polyethylene glycol and 0.5% Tween-80 (Sigma Chemical Co., St. Louis, Mo.) in phosphate buffered saline (GIBCO, Grand Island, N.Y.), i.p. on days -1, 0, 2, 5, 7, 9, 12 and 14. Several compounds when administered at 10 mg/kg/dose inhibited the swelling in the uninjected limb compared with the control groups that were sensitized with Complete Freund's Adjuvant but received only the vehicle i.p. (Table 4).

The mark [3] stands for this setting: inhibition of β-galactosidase activity in FGL-5 cells stimulated with phorbol dibutyrate and ionomycin, read-out: IC50.
Where [4] appears, read: stimulated FGL-5 cells, read-out: IC50 for NF-AT directed β-galactosidase expression.

SMILES strings stand for the structures. Like-named read-outs stand apart in the source and are kept apart here.

`CC[C@H](C)[C@@H](CN1CCCC[C@H]1C(=O)N[C@H](C(=O)NCc1ccccc1)[C@@H](C)OCc1ccccc1)NC(=O)OC(C)(C)C` [Example 19, 1-[1-[2-(S)-[[(1,1-Dimethylethoxy)carbonyl]amino]-3-(S)-methylpentyl]-L-homoproline]-L-threonene(O-Benzyl Ether)Benzylamide]: the IC50 in assay [1] (setting [3]) stood at 9 µM. For the same molecule, in assay [2], the “% Inhibition” value turned out to be 43% and the “ΔAnkle Diameter” value turned out to be 2.1 ± 0.6 mm.
As for `CC[C@H](C)[C@H](NC(=O)[C@@H]1CCCN1C[C@H](CC(C)C)NC(=O)OC(C)(C)C)C(=O)NCc1ccccc1` [Example 2, 1-[1-[2-(S)-[[(1,1-Dimethylethoxy)carbonyl]amino]-4-methylpentyl]-L-proline]-L-isoleucine Benzylamide], the 50% inhibitory concentration (IC50) in assay [1] (setting [3]) turned out to be 13 µM.
As for `CC[C@H](C)[C@H](NC(=O)[C@@H]1CCCN1C[C@H](CC1CCCCC1)NC(=O)OC(C)(C)C)C(=O)NCc1ccccc1` [Example 16, 1-[1-[2-(S)-[[(1,1-dimethylethoxy)carbonyl]amino]-3-cyclohexylpropyl]-L-proline]-L-isoleucine Benzylamide], the half-maximal inhibitory concentration (IC50) in assay [1] (setting [3]) is 19 µM.
Regarding `CC[C@H](C)[C@H](NC(=O)[C@@H]1CCCCN1C[C@@H](NC(=O)OC(C)(C)C)[C@@H](C)CC)C(=O)NCc1ccccc1` [Example 3, 1-[1-[2-(S)-[[(1,1-Dimethylethoxy)carbonyl]amino]-3-(S)-methylpentyl]-L-homoproline]-L-isoleucine Benzylamide], the IC50 in assay [1] (setting [3]) was found to be 1 µM. For the same molecule, in assay [2], the “% Inhibition” value was 30% and the “ΔAnkle Diameter” value was 2.6 ± 0.4 mm.
For the molecule `CCC(C)[C@@H](CN1CCC[C@H]1C(=O)N[C@H](C(=O)NCc1ccccc1)[C@@H](C)CC)NC(=O)[C@H](CC1CCCCC1)NC(=O)OC(C)(C)C` (stereo partly drawn) [Example 7, 1-[1-[2-(S)-[[2-(S)-[[(1,1-Dimethylethoxy)carbonyl]amino]-1-oxo-3-cyclohexylpropyl]amino]-3-methylpentyl]-L-proline]-L-isoleucine Benzylamide], in assay [1] (setting [3]), the IC50 is above 15 µM.
As to `CC[C@H](C)[C@H](NC(=O)[C@@H]1CCCN1C[C@@H](NC(=O)OC(C)(C)C)C(C)C)C(=O)NCc1ccccc1` [Example 17, 1-[1-[2-(S)-[[(1,1-dimethylethoxy)carbonyl]amino]-3-methylbutyl]-L-proline] -L-isoleucine Benzylamide], the IC50 was 29 µM in assay [1] (setting [3]) and at most 10 µM in assay [1] (setting [4]).
Turning to `CC[C@H](C)[C@H](NC(=O)[C@@H]1CCCN1C[C@H](CC(C)C)NC(=O)[C@H](CC(N)=O)NC(=O)[C@H](Cc1ccccc1)NC(=O)OC(C)(C)C)C(=O)OCc1ccccc1` [Example 14, 1-[1-[2-(S)-[[1-[1-[(1,1-Dimethylethoxy)carbonyl]-L-phenylalanyl]-L-asparaginyl]amino]-4-methylpentyl]-L-proline]-L-isoleucine Phenylmethyl Ester], the half-maximal inhibitory concentration (IC50) in assay [1] (setting [4]) was at most 10 µM.
As for `CC[C@H](C)[C@H](NC(=O)[C@@H]1CCCCN1C[C@H](CC(C)C)NC(=O)OC(C)(C)C)C(=O)NCc1ccccc1` [Example 18, 1-[1-[2-(S)-[[(1,1-Dimethylethoxy)carbonyl]amino]-4-methylpentyl]-L-homoproline]-L-isoleucine Benzylamide], the half-inhibitory concentration (IC50) in assay [1] (setting [3]) is above 15 µM.
In the case of `CC[C@H](C)[C@H](NC(=O)[C@@H]1CCCN1C[C@@H](NC(=O)OC(C)(C)C)[C@@H](C)CC)C(=O)NCc1ccccc1` [Example 6], the IC50 in assay [1] (setting [3]) stood at 8 µM. In assay [2], the “% Inhibition” value is on record as 4% and the “ΔAnkle Diameter” value came to 3.2 ± 0.3 mm.
In the case of `CCC(C)[C@@H](CN1CCC[C@H]1C(=O)N[C@H](C(=O)NCc1ccccc1)[C@@H](C)CC)NC(=O)[C@@H](N)CC1CCCCC1` (some centres unmarked) [Example 8], the concentration for half-maximal inhibition (IC50) in assay [1] (setting [3]) was above 15 µM.
